Each molecule was assayed on HCV genotype 1b replicon (assay: HCV replicon assay, cell ELISA with antibody to replicon-encoded NS3/4A (genotype 1b replicon)). Conditions: Hepatitis C virus, 96 h, read-out: 1b IC50(nM), HCV genotype 1b replicon; 96 hours incubation; NS3/4A cell ELISA.
Type: cell-based, hepatitis C virus
Method in brief: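 Replicon-harbouring cells carrying neomycin phosphotransferase were incubated 96 h with a compound dilution series without G418. Replication was quantified indirectly by a cell ELISA detecting replicon-encoded NS3/4A. IC50 values were calculated relative to DMSO control with a four-parameter fit.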

SMILES | IC50
CNC(=O)c1c(-c2ccc(F)cc2)oc2cc(N(C3CC(C#N)C3)S(C)(=O)=O)c(-c3cccc(-c4nc5ncccc5o4)c3)cc12 (stereo not shown) [Example 739] | 2.17 nM
CNC(=O)c1c(-c2ccc(F)cc2)oc2cc(N(C)S(C)(=O)=O)c(-c3cc(F)cc(-c4nc5ncc(F)cc5o4)c3)cc12 [Example 862] | 1.3 nM
CNC(=O)c1c(-c2ccc(F)cc2)oc2cc(N(C)S(C)(=O)=O)c(-c3cc(-c4nc5c(F)cccc5o4)c4oc(=O)[nH]c4c3)cc12 [Example 425] | 3.04 nM
CNC(=O)c1c(-c2ccc(F)cc2)oc2cc(N(C)S(C)(=O)=O)c(-c3cc(OC)cc(-c4cc5cccnc5[nH]4)c3)cc12 [Example 861] | 1.8 nM
CNC(=O)c1c(-c2ccc(F)cc2)oc2cc(N(C)S(C)(=O)=O)c(-c3cc(-c4nc5cccc(F)c5o4)ccc3O)cc12 [Example 611] | 11.1 nM
CNC(=O)c1c(-c2ccc(F)cc2)oc2cc(N(C3CC(C#N)C3)S(C)(=O)=O)c(-c3ccc(OC)c(-c4nc5c(C#N)cccc5o4)c3)cc12 (stereo not shown) [Example 741] | 5.85 nM
CNC(=O)c1c(-c2ccc(F)cc2)oc2cc(N(CCCO)S(C)(=O)=O)c(-c3cc(F)cc(-c4nc5ncccc5o4)c3)cc12 [Example 856] | 4 nM
CNC(=O)c1c(-c2ccc(F)cc2)oc2cc(N(CC(C)(CF)CF)S(C)(=O)=O)c(-c3ccc(OC)c(-c4nc5c(F)cc(F)cc5o4)c3)cc12 [Example 809] | 213 nM
CNC(=O)c1c(-c2ccc(F)cc2)oc2cc(N(CC(O)Cn3ncc4ccccc43)S(C)(=O)=O)c(-c3ccc(OC)c(-c4nc5c(F)cccc5o4)c3)cc12 (stereo not shown) [Example 827] | 11.8 nM
CNC(=O)c1c(-c2ccc(F)cc2)oc2cc(N(Cc3cccnc3)S(C)(=O)=O)c(-c3ccc(OC)c(-c4nc5c(F)cccc5o4)c3)cc12 [Example 707] | 4.93 nM
CNC(=O)c1c(-c2ccc(F)cc2)oc2cc(N(C(CO)CF)S(C)(=O)=O)c(-c3ccc(OC)c(-c4nc5c(F)cccc5o4)c3)cc12 (stereo not shown) [Example 814] | 9.83 nM
CNC(=O)c1c(-c2ccc(F)cc2)oc2cc(N(CC(O)CCF)S(C)(=O)=O)c(-c3ccc(OC)c(-c4nc5c(F)cccc5o4)c3)cc12 (stereo not shown) [Example 815] | 11.8 nM
CNC(=O)c1c(-c2ccc(F)cc2)oc2cc(N(C)S(C)(=O)=O)c(-c3ccc(OC)c(-c4nc5c(F)cccc5o4)c3)cc12 [Example 411, 5-[3-(4-Fluoro-benzooxazol-2-yl)-4-methoxy-phenyl]-2-(4-fluoro-phenyl)-6-(methanesulfonyl-methyl-amino)-benzofuran-3-carboxylic acid methylamide] | 7.1 nM

Same assay, conditions: Hepatitis C virus, 96 h, read-out: Replicon 1b IC50 (nM), HCV genotype 1b replicon cells, 96 hours incubation, NS3/4A ELISA readout

SMILES | IC50
CNC(=O)c1c(-c2ccc(F)cc2)oc2cc(N(C)S(C)(=O)=O)c(-c3cccc(C)c3)cc12 [Example 81, 2-(4-fluorophenyl)-N-methyl-6-[methyl (methylsulfonyl)amino]-5-(3-methylphenyl)-1-benzofuran-3-carboxamide] | 117 nM
CNC(=O)c1c(-c2ccc(F)cc2)oc2cc(N(C)S(C)(=O)=O)c(-c3cc(C#N)cc(-c4nc5ccc(OC)nc5[nH]4)c3)cc12 [Example 324] | 3.5 nM
CNC(=O)c1c(-c2ccc(F)cc2)oc2cc(N(C)S(C)(=O)=O)c(-c3ccc(-c4ccccc4)cc3)cc12 [Example 112, 5-(biphenyl-4-yl)-2-(4-fluorophenyl)-N-methyl-6-[methyl(methylsulfonyl)amino]-1-benzofuran-3-carboxamide] | < 8 nM
CNC(=O)c1c(-c2ccc(F)cc2)oc2cc(N(C)S(C)(=O)=O)c(-c3ccc(OC)c(-c4nc5c(C#N)cccc5o4)c3)cc12 [Example 403, 5-(3-(4-cyanobenzo[d]oxazol-2-yl)-4-methoxyphenyl)-2-(4-fluorophenyl)-N-methyl-6-(N-methylmethylsulfonamido)benzofuran-3-carboxamide] | 3.8 nM
CCOC(=O)N(CCN(C)c1ccccc1)c1cc2oc(-c3ccc(F)cc3)c(C(=O)NC)c2cc1-c1ccccc1 [Example 72, ethyl[2-(4-fluorophenyl)-3-(methylcarbamoyl)-5-phenyl-1-benzofuran-6-yl]{2-[methyl(phenyl)amino]ethyl}carbamate] | 2670 nM
CNC(=O)c1c(-c2ccc(F)cc2)oc2cc(N(CCC=C(C)C)S(C)(=O)=O)c(-c3ccccc3)cc12 [Example 40, 2-(4-fluorophenyl)-N-methyl-6-[(4-methylpent-3-en-1-yl)(methylsulfonyl)amino]-5-phenyl-1-benzofuran-3-carboxamide] | 90 nM
CNC(=O)c1c(-c2ccc(F)cc2)oc2cc(N(CC(C)O)S(C)(=O)=O)c(-c3ccccc3)cc12 (stereo not shown) [Example 29, 2-(4-fluorophenyl)-6-[(2-hydroxypropyl) (methylsulfonyl)amino]-N-methyl-5-phenyl-1-benzofuran-3-carboxamidc] | 412 nM
CNC(=O)c1c(-c2ccc(F)cc2)oc2cc(N(C)S(C)(=O)=O)c(-c3cccc(-c4nc5cc(C(F)(F)F)ccc5s4)c3)cc12 [Example 149, 2-(4-fluorophenyl)-N-methyl-6-[methyl (methylsulfonyl)amino]-5-{3-[5-(trifluoromethyl)-1,3-benzothiazol-2-yl]phenyl}-1-benzofuran-3-carboxamide] | 11 nM
CNC(=O)c1c(-c2ccc(F)cc2)oc2cc(N(CCCc3ccccc3)S(C)(=O)=O)c(-c3ccccc3)cc12 [Example 6, 2-(4-fluorophenyl)-N-methyl-6-[(methylsulfonyl) (3-phenylpropyl)amino]-5-phenyl-1-benzofuran-3-carboxamide] | 118 nM
CNC(=O)c1c(-c2ccc(F)cc2)oc2cc(N(C)S(C)(=O)=O)c(-c3cc(F)cc(-c4nc5cccnc5s4)c3)cc12 [Example 245] | 2 nM
CNC(=O)c1c(-c2ccc(F)cc2)oc2cc(N(C)S(C)(=O)=O)c(-c3cccc(-c4nc5cc(F)ccc5s4)c3)cc12 [Example 292] | 5.9 nM
CNC(=O)c1c(-c2ccc(F)cc2)oc2cc(N(C)S(C)(=O)=O)c(-c3cccc(C#N)c3)cc12 [Example 84, 5-(3-cyanophenyl)-2-(4-fluorophenyl)-N-methyl-6-[methyl (methylsulfonyl)amino]-1-benzofuran-3-carboxamide] | 107 nM
CNC(=O)c1c(-c2ccc(F)cc2)oc2cc(N(C)S(C)(=O)=O)c(-c3cccc(-c4nc5cccc(Cl)c5o4)c3)cc12 [Example 172] | 27 nM
CNC(=O)c1c(-c2ccc(F)cc2)oc2cc(N(CCCCO)S(C)(=O)=O)c(-c3cccc(-c4nc5ncccc5o4)c3)cc12 [Compound 391] | 2.4 nM
CNC(=O)c1c(-c2ccc(F)cc2)oc2cc(N(C)S(C)(=O)=O)c(-c3cc(F)c(OC)c(-c4nc5cccnc5o4)c3)cc12 [Example 233] | 2.9 nM
CNC(=O)c1c(-c2ccc(F)cc2)oc2cc(N(C)S(C)(=O)=O)c(-c3cccc(-c4nc5ccc(C)cc5s4)c3)cc12 [Example 143, 2-(4-fluorophenyl)-N-methyl-5-[3-(6-methyl-1,3-benzothiazol-2-yl)phenyl]-6-[methyl(methylsulfonyl)amino]-1-benzofuran-3-carboxamide] | 8 nM
CNC(=O)c1c(-c2ccc(F)cc2)oc2cc(N(C)S(C)(=O)=O)c(-c3cccc(-c4nc5c(C)cccc5s4)c3)cc12 [Example 146, 2-(4-fluorophenyl)-N-methyl-5-[3-(4-methyl-1,3-benzothiazol-2-yl)phenyl]-6-[methyl (methylsulfonyl)amino]-1-benzofuran-3-carboxamide] | 15 nM
CNC(=O)c1c(-c2ccc(F)cc2)oc2cc(N(CCO)S(C)(=O)=O)c(-c3ccc(OC)c(-c4nc5ncccc5o4)c3)cc12 [Compound 387] | 2.3 nM
CNC(=O)c1c(-c2ccc(F)cc2)oc2cc(N(C)S(C)(=O)=O)c(-c3cc(F)cc(-c4nc5c(C)cccc5o4)c3)cc12 [Example 165] | 4.7 nM
CNC(=O)c1c(-c2ccc(F)cc2)oc2cc(N(C)S(C)(=O)=O)c(-c3cccc(-c4nc5ccc(NC(=O)c6ccccc6)cc5o4)c3)cc12 [Example 283] | 17.2 nM
CNC(=O)c1c(-c2ccc(F)cc2)oc2cc(N(C)S(C)(=O)=O)c(-c3ccc(C)cc3)cc12 [Example 82, 2-(4-fluorophenyl)-N-methyl-6-[methyl (methylsulfonyl)amino]-5-(4-methylphenyl)-1-benzofuran-3-carboxamide] | 53 nM
CNC(=O)c1c(-c2ccc(F)cc2)oc2cc(N(C)S(C)(=O)=O)c(-c3ccc(Cl)c(-c4nc5cc(Cl)cnc5[nH]4)c3)cc12 [Example 322] | 19.5 nM
CNC(=O)c1c(-c2ccc(F)cc2)oc2cc(N(C)S(C)(=O)=O)c(-c3cc(F)cc(-c4nc5cc(Cl)ccc5o4)c3)cc12 [Example 162] | 8.2 nM
CNC(=O)c1c(-c2ccc(F)cc2)oc2cc(N(C)S(C)(=O)=O)c(-c3cccc(-c4nc5ncccc5o4)c3OC)cc12 [Example 205] | 11.9 nM
CNC(=O)c1c(-c2ccc(F)cc2)oc2cc(N(Cc3cccc(F)c3)S(C)(=O)=O)c(-c3ccccc3)cc12 [Example 53, 6-[(3-fluorobenzyl)(methyl-sulfonyl)amino]-2-(4-fluorophenyl)-N-methyl-5-phenyl-1-benzofuran-3-carboxamide] | 373 nM
CNC(=O)c1c(-c2ccc(F)cc2)oc2cc(N(C)S(C)(=O)=O)c(-c3cccc(-c4nc5cnccc5o4)c3)cc12 [Example 211] | 3.3 nM
CNC(=O)c1c(-c2ccc(F)cc2)oc2cc(N(C)S(C)(=O)=O)c(-c3ccc(F)c(-c4nc5ccccc5[nH]4)c3)cc12 [Example 300] | 1.5 nM
CNC(=O)c1c(-c2ccc(F)cc2)oc2cc(N(C)S(C)(=O)=O)c(-c3ccc(F)c(-c4nc5ccccc5o4)c3)cc12 [Example 168] | 3.9 nM
CNC(=O)c1c(-c2ccc(F)cc2)oc2cc(N(C)S(C)(=O)=O)c(-c3ccc(Cl)c(-c4nc5c(F)cccc5o4)c3)cc12 [Example 405] | 4.7 nM
CNC(=O)c1c(-c2ccc(F)cc2)oc2cc(N(C)S(C)(=O)=O)c(-c3ccc(OC)c(-c4nc5cccc(C#N)c5o4)c3)cc12 [Example 407] | 2.8 nM

Reference: patent publication US20120328569A1, “INHIBITORS OF HEPATITIS C VIRUS NS5B POLYMERASE” (priority 2010, published 2012)
